Assay results taken from patent publication US20260144880A1 (priority 2018, published 2026).
Where two headings read alike, the source gives them in different places.

Columns and labels:
[1] = test system: Neuraminidase transfected HEK 293 cells
in vitro = settings: human
[2] = test system: influenza virus A/Puerto Rico/8/1934 (H1N1); type: in vivo, BALB/c mice; settings: DNP-KLH immunized mice, 1.5 μmol/kg intranasally one time a day for five days, 100 LD50
[3] = test system: A/Aichi/2/1968 (HA, NA), x-31b (H3N2) virus; parameters: species or system mice; settings: mouse, in vivo, ip
[4] = test system: Neuraminidase transfected HEK 293 cells; type: binding
A/Puerto Rico/8/34 = test system: A/Puerto Rico/8/34; parameters: species or system mice; settings: mouse, in vivo, ip
[5] = test system: 293NA cells (HEK 293 cells that express NA); type: cell-based
[6] = test system: A/Aichi/2/1968 (HA, NA), x-31b (H3N2) virus; parameters: species or system mice; settings: mouse, in vivo

CCCC(=O)OCN(C(=O)[C@@H](NC(=O)[C@H]1CCCCN1C)C(C)CC)[C@H](C[C@@H](OC(C)=O)c1nc(C(=O)N[C@@H](Cc2ccc(O)cc2)C[C@H](C)C(=O)NNC(=O)OCCSSC[C@H](NC(=O)[C@H](CC(=O)O)NC(=O)[C@@H](N)CNC(=O)CCC(=O)N2Cc3ccccc3-c3c(nnn3CCOCCOCCOCCNC(=O)O[C@@H]([C@@H]3OC(C(=O)O)=C[C@H](NC(=N)N)[C@H]3NC(C)=O)[C@H](O)CO)-c3ccccc32)C(=O)O)cs1)C(C)C (stereo partly drawn)
reduction of cytotoxicity by blocking neuraminidase binding sites [1]: > 30 fold | EC50 (in vitro): 5.2 nM

CC(=O)N[C@H]1[C@H]([C@H](O)[C@H](O)CO)OC(C(=O)O)=C[C@@H]1N=C(N)N [zanamivir]
survival (protection from lethal virus challenge) [2]: 60% | protection 14 days post infection [3]: does not provide the same protection | Kd [4]: ~0.77 nM | protection 14 days post infection (A/Puerto Rico/8/34): does not provide the same protection | % of killing (LDH) [5]: no killing | protection 14 days post infection [6]: does not provide the same protection

Tubulysin B hydrazide
EC50 [1]: 9.9 nM
